Test results as given in the METLIN SMRT retention time set (Domingo-Almenara et al. 2019).

Experiment: gradient 5% acetonitrile 3 min, to 50% in 2 min, to 85% in 15 min, held 3 min, 100 µL/min
Conditions: column: Zorbax Extend-C18 2.1 x 50 mm; eluents: water / acetonitrile, 0.1% formic acid
Outline: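 A Zorbax Extend-C18 column (2.1 × 50 mm, 1.8 μm) run at 100 μL/min with water and acetonitrile, both containing 0.1% formic acid, separated mixtures of ~100 pure standards. The HPLC was coupled to a quadrupole time-of-flight mass spectrometer operated in positive and negative ionization mode, with dead and dwell volumes of 40 μL and 900 μL. Each retention time was taken from a computationally picked adduct peak that was then manually inspected.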

Compound	RP-LC retention time [s]
CCCn1c(=O)c(C)nc2cc(-c3noc(Cc4cccc(F)c4)n3)ccc21	1090
COc1ccc(NC(=O)Cn2nc3cc(-c4ccccc4)nc(C)n3c2=O)c(OC)c1	918
Cc1nc(OCC(=O)NCc2ccccc2)c2ccccc2n1	621
CCCNc1cc(N2CCCC(CCC(=O)N3CCN(c4ccccc4)CC3)C2)ncn1 (stereo not drawn)	719
CCOC(=O)C1=C(C)NC2=C(C(=O)c3ccccc32)C1c1cccc(OC)c1OC (stereo not drawn)	902
CN(C)S(=O)(=O)c1cc(-c2nnc(-c3ccc(F)cc3)o2)ccc1Cl	991
Cc1ccc(C)c(CNS(=O)(=O)c2cc(-c3nc(C(C)(C)C)cs3)cs2)c1	1360
Cc1ccc(Cl)cc1N1CCN(C(=O)C2CCN(c3ncnc4c3oc3ccccc34)CC2)CC1	1060
CCN(CC)CCNC(=O)Cn1c2ccccc2c2cnn(C)c(=O)c21	599
CCc1ccc(OCC(=O)Nc2cnn(C)c(=O)c2N2CCOCC2)cc1	889
CCOC(=O)C1CCN(C(c2cccnc2)c2c(NC(=O)c3ccco3)sc(C)c2C)CC1 (stereo not drawn)	926
CC1(C)CC(=O)c2cn(-c3ccccc3)c(=O)c(C(=O)Nc3ccc(Cl)cn3)c2C1	1050
Cn1nc(C(=O)N2CCCCC2)c2c1CCN(C(=O)CCC(=O)NCC1CCCO1)C2 (stereo not drawn)	608
COc1ccc(-c2noc(Cc3nnc(-c4cccc(Cl)c4)o3)n2)cc1	1070
CC(C)c1cc(C(=O)Nc2ccccc2)nc2ccnn12	1080
COc1ccc(-c2noc(Cc3nc(-c4ccc(Br)cc4)cs3)n2)cc1	1280
CCCCCc1cc(O)c2c(c1)OC(C)(C)[C@@H]1CCC(C(=O)O)=CC21 (stereo partly drawn)	1130
COc1ccc(S(=O)(=O)N2CCCC(C(=O)NCc3ccccn3)C2)cc1OC (stereo not drawn)	604
Cc1ccn2cc(-c3ccc(NS(=O)(=O)c4cc(C(C)C)ccc4C)cc3)nc2n1	745
Cc1cc(C)c2c(N3CCSCC3)nc(C(=O)NC(C)c3ccccn3)nc2n1 (stereo not drawn)	618
O=c1c(=O)n(-c2ccccc2)ccn1Cc1nc(-c2ccc(Cl)cc2)no1	877
Cn1cc(CN2CCC(C(=O)NCCN3CCOCC3)CC2)c2cc(Cl)ccc21	568

Compound	RP-LC retention time [s]
COc1cccc(-c2ccc(SCC(=O)Nc3ccccc3C(F)(F)F)nn2)c1	912
CCn1ccc2sc(C)c(C(=O)N3CCC(N4CCCCC4)CC3)c2c1=O	566
CC(=O)N1CCc2cc(N3CC(C(=O)Nc4ccc(Br)cc4)CC3=O)ccc21 (stereo not drawn)	770
CCc1cccc(NC(=O)c2cc(CC)n3nccc3n2)c1	1150
COC(=O)c1cc(OCC(=O)Nc2cc(F)ccc2F)c2cc(OC)ccc2n1	880
O=C(Nc1ccc(Cl)cc1)Nc1cccn2ncnc12	838
Cc1nc(CC(=O)Nc2ccc(F)cc2F)sc1C(=O)NC1CC1	696
COc1ccc(CNC(=O)c2ccc3c(=O)n(-c4ccc(F)cc4)c(N4CCCC4)nc3c2)cc1	852
Cc1ccc(-c2cc3c4nnc(SCC(=O)Nc5ccc(Cl)cc5)n4ccn3n2)cc1C	1080
Cc1nc(Nc2ccc(F)cn2)sc1C(=O)N1CCc2ccccc2C1	872
COc1ccccc1-c1nc(-c2ccc3c(c2)ncn3CCN2CCCC2)no1	797
COc1ccc(N2CCN(c3nc(C(=O)N4CCN(C)CC4)cs3)CC2)cc1	614
CC(C)NC(=O)c1ccc(OCC2CCCN2C(=O)c2ccc(N(C)C)cc2)cc1 (stereo not drawn)	799
COc1cccc(-c2nc(C3CCN(S(=O)(=O)c4ccccc4F)CC3)no2)c1	1110
Cn1c(N2CCCC(C(=O)NCc3cccs3)C2)cc(=O)n(C)c1=O (stereo not drawn)	650
Cc1ccc(NC(=O)N2CCc3nc(-c4ccc(Cl)cc4)ncc3C2)cc1	783
CC1CCC(NC(=O)C2CCN(C(=O)c3ncn4c3COC(c3ccc(Cl)cc3)C4)CC2)CC1 (stereo not drawn)	880
CN1c2ccccc2C(=O)NC12CCN(C(=O)Nc1ccccc1Cl)CC2	761
O=C(C1CCOC1)N1CCC(c2nncn2Cc2ccccc2)CC1 (stereo not drawn)	541
Cc1cccc(-c2noc(Cn3c(=O)n(-c4ccc(F)cc4)c(=O)c4sccc43)n2)c1	1030
CN(C(=O)c1ccc(-c2cccc([N+](=O)[O-])c2)o1)C1CCS(=O)(=O)C1 (stereo not drawn)	726
CCN1C(=O)C2(CCN(S(=O)(=O)c3cc(F)ccc3OC)CC2)c2ccccc21	1030

Compound	RP-LC retention time [s]
COc1ccc(OC)c(NC(=O)c2csc(-c3ccc(C)n3C)n2)c1	1230
Cn1nccc1C(=O)NCc1ccc(-c2nc(-c3ccc(F)cc3)no2)s1	930
CCn1c(=O)oc2cc(S(=O)(=O)N3CCN(C(=O)C4(c5ccccc5)CC4)CC3)ccc21	848
CCN1C(=O)COc2ccc(-c3csc(NC(=O)c4ccccc4Cl)n3)cc21	968
Cc1ccc(N2C(=O)C3N=NN(Cc4nc(-c5ccccc5)no4)C3C2=O)cc1 (stereo not drawn)	975
Cc1c(-c2ccc(Cl)cc2)noc1C1CCN(CCc2ccccc2)CC1	922
CCOc1ccc(NS(=O)(=O)c2ccc(-c3c(C)noc3C)cc2)cc1	934
COc1ccc(S(=O)(=O)N2CCC(Cc3nncn3C)CC2)cc1	657
CCOc1ccc(C(=O)NC(C(=O)Nc2nc3ccccc3[nH]2)C(C)C)cc1OCC (stereo not drawn)	735
CCCc1ccc(-c2cc(C(=O)N3CCN(c4ccccn4)CC3)c3ccccc3n2)cc1	857
CCn1cc(CN2CC(Oc3ccc(-c4noc(-c5ccncc5)n4)cc3)C2)cn1	633
Cc1ccc(NC(=O)N2CCC(N3CCN(Cc4ccccc4)C3=O)CC2)c(C)c1	843
COc1ccc(C)cc1NC(=O)N1CCN(c2ccc(-c3ccc4c(c3)OCO4)nn2)CC1	659
CC(C)Cn1c(=O)c2sccc2n2c(CCC(=O)NCc3cc(F)ccc3F)nnc12	622
COC[C@@H]1CN(c2cnccn2)C[C@H]1C(=O)NCc1ccc(C)o1	636
COc1ccc(C2(C(=O)N3CCC4(CC3)CN(C(C)C)C4c3ccccc3)CC2)cc1 (stereo not drawn)	684
CCCNS(=O)(=O)c1cc(-c2c(CC)noc2NC(C)=O)ccc1OC	774
O=C(CN1C(=O)CCC1=O)N1CCC(Oc2nc3ccc(F)cc3s2)CC1	734
COC(=O)c1cccc(NC(=O)c2sc(-c3cn(C(C)C)c4ncccc34)nc2C)c1	1060
Cc1cc(C)cc(NC(=O)Cn2ncc3c(N4CCN(c5ccccn5)CC4)ncnc32)c1	606
COc1ccc(S(=O)(=O)N2[C@H]3CC[C@@H]2c2cncnc2C3)cc1	715
Clc1cccc(-c2nnc(-c3nc(N4CCOCC4)c4ccccc4n3)o2)c1	973

Compound	RP-LC retention time [s]
CC(C)CCC(=O)N1CCN(c2nc(CN3CCOCC3)cs2)CC1	624
CC1CCC2(CC1)NC(=O)N(CC(=O)NCc1ccccc1F)C2=O (stereo not drawn)	772
CCc1cc(=O)n(CC(=O)NC2CCCC2)c(N)n1	574
COc1ccc(Cn2c(=O)c3sccc3n(Cc3nc(-c4ccccc4OC)no3)c2=O)cc1	970
CCOC(=O)C(C)Sc1nnc(NC(=O)C2CC2)s1 (stereo not drawn)	708
O=C1CCCN1CCCN1C(=O)[C@H]2CN(Cc3cccc(OC(F)(F)F)c3)C[C@H]2C1=O	678
Cc1ccc(NC(=O)N(C)Cc2ccoc2)cc1	647
O=C(COc1ccccc1)N1[C@H]2CC[C@@H]1c1cnc(-c3ccccc3)nc1C2	952
Cc1ccc(C(=O)N2C[C@@H]3C[C@H]2C[C@@H]3NS(C)(=O)=O)s1	595
COc1cc(NC(=O)Cn2nc([N+](=O)[O-])cc2C)c(OC)cc1Cl	829
CCOc1ccccc1-c1nc(C2CC(=O)N(c3ccc(CC)cc3)C2)no1 (stereo not drawn)	1130
O=C(CCNc1c(-c2cccc(F)c2)nc2cnccn12)NCc1ccco1	680
CCc1ccc(N2C[C@@]34C=C[C@@H](O3)[C@H](C(=O)OC)[C@@H]4C2=O)cc1	793
Cc1ccn2c(=O)cc(CN(C)Cc3ccc(Cl)cc3)nc2c1	631
Cc1cc(Nc2ncccc2S(N)(=O)=O)ccc1F	820
CC(NC(=O)C1CCN(c2cncnc2N2CCOCC2)CC1)c1ccc(F)cc1 (stereo not drawn)	628
COc1cc(OC)c(NC(=O)N(C)Cc2nc3cc(C(=O)N4CCCC4)ccc3n2C)cc1Cl	640
CSc1ccc(-c2nc3cnccn3c2NC2CCCC2)cc1	914
Cc1cc(F)ccc1NS(=O)(=O)c1cc2n(c1)CCN(CC(C)C)C2=O	828
CCc1cccc(CC)c1NC(=O)c1cccc(OC)c1	875
Fc1cccc(Cn2cc(-c3noc(C4CCCC4)n3)nn2)c1	1010
CCc1nnc2cc(N3CCN(S(=O)(=O)c4cccc(F)c4)CC3)cnn12	690
